Laboratory results published in ChEMBL document CHEMBL2073927, “ABCG2 transports sulfated conjugates of steroids and xenobiotics” (J Biol Chem, 2003).
Where a name gives a salt, the structure may show the parent alone.

Columns and labels:
[1] = biological target: T1, Broad substrate specificity ATP-binding cassette transporter ABCG2 (Homo sapiens, UniProt Q9UNQ0); test: (§1) TP_TRANSPORTER: uptake (vesicle) in membrane vesicles from ABCG2-expressing P388 cells; assay type: functional, cell membranes; conditions: mouse
T1 sequence (Q9UNQ0 whole entry): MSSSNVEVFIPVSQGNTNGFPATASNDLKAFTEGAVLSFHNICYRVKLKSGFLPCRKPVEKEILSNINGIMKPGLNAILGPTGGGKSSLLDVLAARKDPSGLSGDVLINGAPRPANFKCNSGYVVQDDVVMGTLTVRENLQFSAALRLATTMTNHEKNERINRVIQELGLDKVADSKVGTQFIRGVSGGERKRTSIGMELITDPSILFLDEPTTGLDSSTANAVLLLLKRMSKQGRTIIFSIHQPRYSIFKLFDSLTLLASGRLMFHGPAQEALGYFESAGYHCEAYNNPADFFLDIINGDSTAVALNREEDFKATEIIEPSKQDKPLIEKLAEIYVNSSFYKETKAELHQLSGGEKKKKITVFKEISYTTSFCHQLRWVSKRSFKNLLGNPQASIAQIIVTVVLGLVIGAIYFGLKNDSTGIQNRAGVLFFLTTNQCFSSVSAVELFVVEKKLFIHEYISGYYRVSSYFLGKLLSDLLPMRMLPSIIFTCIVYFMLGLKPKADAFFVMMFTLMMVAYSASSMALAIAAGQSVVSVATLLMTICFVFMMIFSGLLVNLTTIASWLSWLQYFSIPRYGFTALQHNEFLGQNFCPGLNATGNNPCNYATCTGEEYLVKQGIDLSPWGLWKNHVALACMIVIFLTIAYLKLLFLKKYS

[2] = biological target: T1, Broad substrate specificity ATP-binding cassette transporter ABCG2; test: TP_TRANSPORTER: inhibition of E1S uptake by 6-hydroxy-5,7-dimetyl-2-metylamino-4-(3-pyridylmethyl) benzothiazole glucronid at a concentration of 250uM in membrane vesicles from ABCG2-expressing P388 cells; assay type: functional, cell membranes, Membrane vesicle; set-up: scale not given: the % may be the effect or the level left; conditions: mouse, p388, 250 µM
ABCG2 [3] = biological target: T2, ABCG2 (Homo sapiens, UniProt Q9UNQ0); test: TP_TRANSPORTER: inhibition of E1S uptake by 4-Methylumbelliferone glucuronide at a concentration of 500uM in membrane vesicles from ABCG2-expressing P388 cells; assay type: functional, cell membranes, Membrane vesicle; set-up: scale not given: the % may be the effect or the level left; conditions: mouse, probe E1S, read-out: Activity
T2 sequence (Q9UNQ0 whole entry): T1 sequence (Q9UNQ0 whole entry)

ABCG2 [4] = biological target: T2, ABCG2; test: TP_TRANSPORTER: inhibition of E1S uptake by Doxorubicin at a concentration of 1000uM in membrane vesicles from ABCG2-expressing P388 cells; assay type: functional, cell membranes, Membrane vesicle; set-up: scale not given: the % may be the effect or the level left; conditions: mouse, probe E1S, read-out: Activity
ABCG2 [5] = biological target: T2, ABCG2; test: TP_TRANSPORTER: inhibition of E1S uptake by Pravastatin at a concentration of 200uM in membrane vesicles from ABCG2-expressing P388 cells; assay type: functional, cell membranes, Membrane vesicle; set-up: scale not given: the % may be the effect or the level left; conditions: mouse, probe E1S, read-out: Activity
ABCG2 [6] = biological target: T2, ABCG2; test: TP_TRANSPORTER: inhibition of E1S uptake by Estrone at a concentration of 200uM in membrane vesicles from ABCG2-expressing P388 cells; assay type: functional, cell membranes, Membrane vesicle; set-up: scale not given: the % may be the effect or the level left; conditions: mouse, probe E1S, read-out: Activity
ABCG2 [7] = biological target: T2, ABCG2; test: TP_TRANSPORTER: inhibition of E1S uptake by 2.4-dinitrophenyl-S-glutathione at a concentration of 80uM in membrane vesicles from ABCG2-expressing P388 cells; assay type: functional, cell membranes, Membrane vesicle; set-up: scale not given: the % may be the effect or the level left; conditions: mouse, probe E1S, read-out: Activity
[8] = substrate: Cc1cc(=O)oc2cc(OS(=O)(=O)O)ccc12; test: TP_TRANSPORTER: uptake (vesicle) in membrane vesicle from ABCG2-expressing mouse lymphoma(P388)cells; assay type: functional, cell membranes
[9] = substrate: C[C@]12CC[C@@H]3c4ccc(OS(=O)(=O)O)cc4CC[C@H]3[C@@H]1CCC2=O; test: as §1; assay type: functional, cell membranes
[10] = substrate: CNc1nc2c(Cc3cccnc3)c(C)c(OS(=O)(=O)O)c(C)c2s1; test: as §1; assay type: functional, cell membranes

CN(Cc1cnc2nc(N)nc(N)c2n1)c1ccc(C(=O)N[C@@H](CCC(=O)O)C(=O)O)cc1 [METHOTREXATE]
Activity [1]: substrate []

C[C@]12CC[C@@H]3c4ccc(O)cc4CC[C@H]3[C@@H]1CC[C@@H]2O[C@@H]1O[C@H](C(=O)O)[C@@H](O)[C@H](O)[C@H]1O [ESTRADIOL 17B GLUCURONIDE]
Activity [1]: substrate []

CNc1nc2c(Cc3cccnc3)c(C)c(O[C@@H]3O[C@H](C(=O)O)[C@@H](O)[C@H](O)[C@H]3O)c(C)c2s1 [E3040 GLUCURONIDE]
Activity [1]: substrate []
Activity [2]: 76%

O=C(O)[C@H]1O[C@@H](OCc2cc(=O)oc3cc(O)ccc23)[C@H](O)[C@@H](O)[C@@H]1O
Activity [1]: substrate []
activity at 500 µM (ABCG2 [3]): 84%

COc1cccc2c1C(=O)c1c(O)c3c(c(O)c1C2=O)C[C@@](O)(C(=O)CO)C[C@@H]3O[C@H]1C[C@H](N)[C@H](O)[C@H](C)O1 [DOXORUBICIN]
activity at 1000 µM (ABCG2 [4]): 72%

CC[C@H](C)C(=O)O[C@H]1C[C@H](O)C=C2C=C[C@H](C)[C@H](CC[C@@H](O)C[C@@H](O)CC(=O)O)[C@H]21 [PRAVASTATIN]
activity at 200 µM (ABCG2 [5]): 76%

CNc1nc2c(Cc3cccnc3)c(C)c(OS(=O)(=O)O)c(C)c2s1 [E3040 SULFATE]
Activity [1]: substrate []

Cc1cc(=O)oc2cc(OS(=O)(=O)O)ccc12
Activity [1]: substrate []

C[C@]12CC[C@H](OS(=O)(=O)O)CC1=CC[C@@H]1[C@@H]2CC[C@]2(C)C(=O)CC[C@@H]12 [PRASTERONE SULFURIC ACID]
Activity [1]: substrate []

C[C@]12CC[C@@H]3c4ccc(O)cc4CC[C@H]3[C@@H]1CCC2=O [ESTRONE]
activity at 200 µM (ABCG2 [6]): 56%

N[C@@H](CCC(=O)N[C@H](CSc1ccc([N+](=O)[O-])cc1[N+](=O)[O-])C(=O)NCC(=O)O)C(=O)O
activity at 80 µM (ABCG2 [7]): 78%
Activity [1]: substrate []

B1: Broad substrate specificity ATP-binding cassette transporter ABCG2 (Homo sapiens) (protein)
chain: T1 sequence (Q9UNQ0 whole entry)
Km [8]: 13 µM
Km [9]: 17 µM
Km [10]: 27 µM
